{"source": "patent EP0286418A1", "about": "“Anti-retroviral agents and delivery systems for the same” (priority 1987, dated 1988)", "key": {"HIV-1 (Ba-L)": {"tested_on": "HIV-1 (Ba-L)", "test": "inhibition of HIV proliferation in monocytes (p24 antigen ELISA)", "type": "cell-based", "conditions": "HIV-infected human monocytes; compared with ddCTP liposomes"}, "[1]": {"test": "trypan blue exclusion test", "type": "cell-based", "conditions": "human, 8.e6 and u.1 cells; at all doses; read-out: viable cells (trypan blue exclusion)", "from_the_text": "Tritiated thymidine uptake was used to assess toxic effects of ddCTP liposomes on the lymphoid (8.E6) and promonocytic (U.1) clones. […] As judged by trypan blue exclusion test, the cells remained more than 90% viable at all doses."}, "adherent human monocytes": {"tested_on": "adherent human monocytes", "test": "uptake of dideoxynucleotides", "type": "cell-based", "conditions": "37°C, drug 1 uM", "experimental": "Uptake of ₃H-deoxyctidine triphosphate (³H-dCTP) was used as an indicator of the uptake of vesicle contents by cells. Uptake experiments were done by plating 5 × 10⁶ monocytes in each well of a 6-well microtiter plate (Costar) and adding reagents one or two days later. Incubations were done in DMEM-GG-FCS at 37°C. The rate of increase of dCTP content in the cells over a 9-hour period (Table 7) averaged 0.29 pmole/million cells/hr with liposomes containing 4 mM EPC. Other experiments established that ddCTP and ddCMP are not readily taken up by the cells (Table 9)."}, "monocytes [2]": {"tested_on": "monocytes", "test": "percent lysis of Candida albicans by monocytes", "type": "cell-based, Human", "conditions": "effect on monocyte function", "experimental": "(§1) Human peripheral blood mononuclear cells were obtained by standard procedures employing continuous flow cell separation (leukapheresis), such as described in Wahl, et al., Cellular Immunol. 85:373-383 (1984). The preparation was diluted in phosphate-buffered saline and layered onto gradients of Ficoll-Paque (Pharmacia-PL Biochemicals, Piscataway, N.J., USA). After centrifugation, mononuclear cells were pipetted from the interface, washed, and suspended in DMEM-GG-FCS. They were then fractionated by countercurrent centrifugal elutriation. The procedure comprises the Beckman elutriation system including a J-21 Beckman Centrifuge, a JE-6 elutriator rotor, a stroboscope, and a Masterflex pump and pumphead. The cells were loaded into the rotor and fractionated by elution at increasing flow rates. Fractions 7 and 8, highly enriched for monocytes, were pooled for use."}, "[3]": {"test": "leakage from liposomes at 4°C", "type": "physicochemical", "conditions": "liposomes of Example 1 or similar liposomes"}, "monocytes [4]": {"tested_on": "monocytes", "test": "production of prostaglandin E2 by monocytes", "type": "cell-based, Human", "conditions": "effect on monocyte function", "experimental": "as §1"}, "in vitro": {"test": "in vitro", "type": "in vitro ADME", "experimental": "When the same incubations were done in the absence of monocytes, the results were essentially identical.\nStudies were conducted under conditions mimicking those of anti-viral tests. ddCMP: dideoxycytidine monophosphate. Data points represent integrals under HPLC peaks from gradient elution on a VYDAC nucleotide column."}, "[5]": {"test": "leakage from liposomes at 37°C in DMEM-GG-FCS", "type": "physicochemical", "experimental": "The release of liposome contents as a function of time was assessed by centrifugal elution of free ddCTP through Centrifree filters (Amicon, Danvers, Mass., USA). Typically, 100 microliters of suspension was centrifuged at 1500 G for about 10 minutes, 100 microliters additional phosphate-buffered saline was added, and the filter was again spun for about 10 minutes. Pooled filtrate was counted for ³H-ddCTP to determine released drug, and the filter itself was similarly counted to establish the mass balance. Very little ¹⁴C-cholesteryl oleate was ever found in the filtrate, indicating that liposomal lipid was not passing through the filter. […] Leakage tests were also conducted under conditions mimicking those of the viral experiments infra, i.e., in tissue culture plates with 96 flat-bottom wells (Costar, Cambridge, Mass., USA) at 37°C in a CO₂ incubator in Dulbecco's Minimal Eagles Medium supplemented with gentamycin, glutamine, and 10% fetal calf serum (DMEM-GG-FCS). […] In contrast, 50% of the ddC was released within 1 hour, and 95% within 4 hours."}, "[6]": {"test": "capture / encapsulation volume of ddCTP liposomes", "type": "physicochemical", "experimental": "The amount of lipid in the preparation was determined from ¹⁴C counts (¹⁴C-cholesteryl oleate) in a standard beta counting scintillation fluid. The amount of ddCTP was assessed from the optical density at 280 nm. Samples for optical density reading were prepared by adding 0.9 ml of 65:25 chloroform ethanol solution to 0.5 ml of the sample. This eliminated light scatter that would otherwise have resulted from the presence of lipid particles. Negative staining electron microscopy was performed using glow-discharged formvar-carbon coated grids and sodium phosphotungstate. Release of ddCTP from liposomes was assessed by dialysis of samples against phosphate buffered saline. The integrity of ddCTP was assessed by high-performance gradient-elution anion exchange chromatography.\nThe amounts of lipid and ddCTP in the preparation were calculated from ¹⁴C and ³H counts, respectively. Encapsulation was generally in the range of 1.5 - 2 microliters/micromole EPC. The size distribution of liposomes was determined by quasi-elastic light-scattering (QELS) using an N4MD multiple-angle submicron particle size analyzer (Coulter, Hialeah, Fla., USA). […] The profile is substantially similar to that of a fresh preparation. The weight average diameter was about 215 nm with the coefficient of variation being about 100 nm."}}, "data": [{"compound": "Nc1ccn([C@H]2CC[C@@H](COP(=O)(O)OP(=O)(O)OP(=O)(O)O)O2)c(=O)n1", "note": "[ddCTP, 2ʹ,3ʹ-dideoxycytidine-5ʹ-triphosphate]", "values": [{"measurement": "activity against p24 expression", "setting": "HIV-1 (Ba-L)", "result": "active at similar concentrations"}, {"measurement": "viability", "setting": "[1]", "result": "> 90", "unit": "%"}, {"measurement": "pmole drug/1 million cells (mean)", "setting": "adherent human monocytes; 0. h", "result": "0.15 pmole drug/1 million cells"}, {"measurement": "pmole drug/1 million cells (mean)", "setting": "adherent human monocytes; 0.33 h", "result": "0.09 pmole drug/1 million cells"}, {"measurement": "pmole drug/1 million cells (mean)", "setting": "adherent human monocytes; 1.00 h", "result": "0.09 pmole drug/1 million cells"}, {"measurement": "pmole drug/1 million cells (mean)", "setting": "adherent human monocytes; 3.00 h", "result": "0.11 pmole drug/1 million cells"}, {"measurement": "pmole drug/1 million cells (mean)", "setting": "adherent human monocytes; 6.00 h", "result": "0.33 pmole drug/1 million cells"}, {"measurement": "pmole drug/1 million cells (mean)", "setting": "adherent human monocytes; 9.00 h", "result": "0.43 pmole drug/1 million cells"}, {"measurement": "pmole drug/1 million cells (mean)", "setting": "adherent human monocytes; 20.00 h", "result": "0.66 pmole drug/1 million cells"}, {"measurement": "percent lysis of Candida albicans", "setting": "monocytes [2]", "result": "No consistent effects"}, {"measurement": "t1/2 for leakage from liposomes", "setting": "[3]", "result": "> 60", "unit": "h"}, {"measurement": "production of prostaglandin E2", "setting": "monocytes [4]", "result": "No consistent effects"}, {"measurement": "conversion to ddCMP", "setting": "in vitro", "result": "largely converted to ddCMP"}, {"measurement": "fraction present as ddC", "setting": "in vitro", "result": 23, "unit": "%"}, {"measurement": "Percent of total drug 3H as ddCTP", "setting": "in vitro; 10% fetal calf serum medium, 0.5 h", "result": 39.6, "unit": "%"}, {"measurement": "Percent of total drug 3H as ddCTP", "setting": "in vitro; serum-containing medium with cells, 4 h", "result": 1.4, "unit": "%"}, {"measurement": "Percent of total drug 3H as ddCTP", "setting": "in vitro; serum-containing medium with cells, 6 h", "result": 1.4, "unit": "%"}, {"measurement": "Percent of total drug 3H as ddCTP", "setting": "in vitro; serum-containing medium without cells, 0.75 h", "result": 20.3, "unit": "%"}, {"measurement": "Percent of total drug 3H as ddCTP", "setting": "in vitro; serum-containing medium without cells, 1.5 h", "result": 19.5, "unit": "%"}, {"measurement": "Percent of total drug 3H as ddCTP", "setting": "in vitro; serum-containing medium without cells, 4 h", "result": 2.7, "unit": "%"}, {"measurement": "Percent of total drug 3H as ddCTP", "setting": "in vitro; serum-containing medium without cells, 6 h", "result": 0.6, "unit": "%"}, {"measurement": "remaining at 72 h", "setting": "in vitro; serum-containing medium without cells, Percent of total drug 3H as ddCTP", "result": 0, "unit": "%"}, {"measurement": "% of total drug in liposomes", "setting": "[5]; absence of cells, 0 h", "result": 85.6, "unit": "%"}, {"measurement": "% of total drug in liposomes", "setting": "[5]; absence of cells, 0.16 h", "result": 74.3, "unit": "%"}, {"measurement": "% of total drug in liposomes", "setting": "[5]; absence of cells, 0.32 h", "result": 78.5, "unit": "%"}, {"measurement": "% of total drug in liposomes", "setting": "[5]; absence of cells, 1 h", "result": 77.2, "unit": "%"}, {"measurement": "% of total drug in liposomes", "setting": "[5]; absence of cells, 2 h", "result": 82.1, "unit": "%"}, {"measurement": "% of total drug in liposomes", "setting": "[5]; absence of cells, 4 h", "result": 78.5, "unit": "%"}, {"measurement": "% of total drug in liposomes", "setting": "[5]; absence of cells, 24 h", "result": 81.7, "unit": "%"}, {"measurement": "% of total drug in liposomes", "setting": "[5]; absence of cells, 48 h", "result": 75.7, "unit": "%"}, {"measurement": "% of total drug in liposomes", "setting": "[5]; absence of cells, 72 h", "result": 87.4, "unit": "%"}, {"measurement": "leakage from liposomes", "setting": "[5]; over a period of 72 hours, presence or absence of adherent monocytes", "result": "Very little leakage"}, {"measurement": "% of total drug in liposomes", "setting": "[5]; with adherent human monocytes, 0 h", "result": 84.4, "unit": "%"}, {"measurement": "% of total drug in liposomes", "setting": "[5]; with adherent human monocytes, 0.16 h", "result": 83.8, "unit": "%"}, {"measurement": "% of total drug in liposomes", "setting": "[5]; with adherent human monocytes, 0.32 h", "result": 84.4, "unit": "%"}, {"measurement": "% of total drug in liposomes", "setting": "[5]; with adherent human monocytes, 1 h", "result": 78.0, "unit": "%"}, {"measurement": "% of total drug in liposomes", "setting": "[5]; with adherent human monocytes, 2 h", "result": 83.3, "unit": "%"}, {"measurement": "% of total drug in liposomes", "setting": "[5]; with adherent human monocytes, 4 h", "result": 82.9, "unit": "%"}, {"measurement": "% of total drug in liposomes", "setting": "[5]; with adherent human monocytes, 24 h", "result": 75.9, "unit": "%"}, {"measurement": "% of total drug in liposomes", "setting": "[5]; with adherent human monocytes, 48 h", "result": 68.0, "unit": "%"}, {"measurement": "% of total drug in liposomes", "setting": "[5]; with adherent human monocytes, 72 h", "result": 78.4, "unit": "%"}, {"measurement": "calculated capture", "setting": "[6]; Example 1 liposomes (DPPC/DPPG/cholesterol)", "result": "2.6 microliters/micromole lipid"}, {"measurement": "Encapsulation", "setting": "[6]; Example 2 liposomes (EPC/PS/cholesterol)", "result": "1.5 - 2 microliters/micromole EPC"}]}]}
